Source: US11866518B2, “Bicyclic peptide ligands specific for TSLP” (BicycleTx Limited, priority 2020, dated 2024)
*1 amine or outer side, *2 acyl side, *3 side chain or, on linkers, in order; H or OH if unused. Where a SMILES comes first, the peptide text is derived from it. Bridges are numbered along the chain shown (N, C = ends). [ ]: non-standard residue; d: D form. TATA = O=C(CC[*:1])N1CN(C(=O)CC[*:2])CN(C(=O)CC[*:3])C1; Orn = NCCC[C@H](N)C(=O)O; Dap = NC[C@H](N)C(=O)O

The compounds below were run against TSLP (Homo sapiens, UniProt Q969D9) (assay: Human TSLP Surface Plasmon Resonance (SPR) binding assay). Details: biotinylated human TSLP immobilized on streptavidin chip; 20° C.; steady-state or kinetic 1:1 fit; read-out: hTSLP SPR Kd.
TSLP, sequence (Q969D9 29-159): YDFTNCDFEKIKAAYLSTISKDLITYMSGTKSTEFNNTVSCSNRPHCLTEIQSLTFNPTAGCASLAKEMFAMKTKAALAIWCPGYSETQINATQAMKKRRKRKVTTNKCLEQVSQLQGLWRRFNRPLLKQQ
Set-up: The resulting construct spCD33-6×HN-TEV-hTSLP(29-159)-Avi; 6xHN tag with TEV site (N, cleaved yes); made in house; host or cells: Expi293F cells
For `CC(=O)N[C@H]1CSCCC(=O)N2CN3CN(C2)C(=O)CCSC[C@H](NC(=O)[C@H](CC(=O)O)NC(=O)[C@H](CCC(=O)O)NC(=O)[C@H](CC(C)C)NC(=O)[C@H](Cc2c[nH]c4ccccc24)NC(=O)[C@H](CCC(N)=O)NC1=O)C(=O)N[C@@H](Cc1c[nH]c2ccccc12)C(=O)N[C@@H](CCCNC(=N)N)C(=O)NCC(=O)N[C@@H](Cc1cccnc1)C(=O)N[C@H](C(N)=O)CSCCC3=O` [Example 158, Ac-(SEQ ID NO: 116)], the Kd was 5400 nM.
`CC(=O)N[C@H]1CSCCC(=O)N2CN3CN(C2)C(=O)CCSC[C@H](NC(=O)[C@H](CC(N)=O)NC(=O)[C@H](CCC(=O)O)NC(=O)[C@H](CC(C)C)NC(=O)[C@H](Cc2c[nH]c4ccccc24)NC(=O)[C@H](Cc2c[nH]cn2)NC1=O)C(=O)N[C@@H](Cc1c[nH]c2ccccc12)C(=O)N[C@@H](CN)C(=O)NCC(=O)N[C@@H](Cc1ccccc1)C(=O)N[C@H](C(N)=O)CSCCC3=O` [Example 159, Ac-(SEQ ID NO: 117)] (Ac-CHWLENCW[Dap]GFC-NH2; linker 1-7-12 via TATA; C-terminus assumed) was tested, and the Kd was 5600 nM.
`CC(C)C[C@@H]1NC(=O)[C@H](CO)NC(=O)[C@H](CCC(=O)O)NC(=O)[C@@H](NC(=O)[C@H](C)N)CSCCC(=O)N2CN3CN(C2)C(=O)CCSC[C@H](NC(=O)[C@H](CO)NC(=O)[C@H](Cc2c[nH]c4ccccc24)NC(=O)[C@@H]2CCCN2C(=O)[C@H](CC(=O)O)NC1=O)C(=O)N1CCC[C@H]1C(=O)N[C@@H](C(C)C)C(=O)N[C@@H](Cc1c[nH]c2ccccc12)C(=O)N[C@@H](Cc1c[nH]c2ccccc12)C(=O)N[C@@H](CCCNC(=N)N)C(=O)N[C@H](C(=O)N[C@@H](C)C(N)=O)CSCCC3=O` [Example 161, A-(SEQ ID NO: 119)-A] (H-ACESLDPWSCPVWWRCA-NH2; linker 2-10-16 via TATA; N-terminus and C-terminus assumed) gave a Kd of 890 nM.
`CC(C)C[C@@H]1NC(=O)[C@H](CO)NC(=O)[C@@H]2CCCN2C(=O)[C@@H](NC(=O)[C@H](C)N)CSCCC(=O)N2CN3CN(C2)C(=O)CCSC[C@H](NC(=O)[C@H]([C@@H](C)O)NC(=O)[C@H](Cc2c[nH]c4ccccc24)NC(=O)[C@@H]2CCCN2C(=O)[C@H](CC(=O)O)NC1=O)C(=O)N[C@@H](CCC(N)=O)C(=O)N[C@@H](CO)C(=O)N[C@@H](Cc1c[nH]c2ccccc12)C(=O)N[C@@H](Cc1ccc(O)cc1)C(=O)N[C@@H](CCC(=O)O)C(=O)N[C@H](C(=O)N[C@@H](C)C(N)=O)CSCCC3=O` [Example 162, A-(SEQ ID NO: 120)-A] was tested, and the Kd was 1500 nM.
With `CC(C)C[C@@H]1NC(=O)[C@H](CC(=O)O)NC(=O)[C@H](CCCCN)NC(=O)[C@@H](NC(=O)[C@H](C)N)CSCCC(=O)N2CN3CN(C2)C(=O)CCSC[C@H](NC(=O)[C@H]([C@@H](C)O)NC(=O)[C@H](Cc2c[nH]c4ccccc24)NC(=O)[C@@H]2CCCN2C(=O)[C@H](CC(=O)O)NC1=O)C(=O)N[C@@H](CO)C(=O)N[C@@H](CO)C(=O)N[C@@H](Cc1c[nH]c2ccccc12)C(=O)N[C@@H](Cc1c[nH]c2ccccc12)C(=O)N[C@@H](CCC(=O)O)C(=O)N[C@H](C(=O)N[C@@H](C)C(=O)N1CCC[C@H]1C(=O)N[C@@H](CC(N)=O)C(N)=O)CSCCC3=O` [Example 167, A-(SEQ ID NO: 125)-APN] (H-ACKDLDPWTCSSWWECAPN-NH2; linker 2-10-16 via TATA; N-terminus assumed) the Kd was 170 nM.
Compound `CC(C)C[C@@H]1NC(=O)[C@H](Cc2c[nH]c3ccccc23)NC(=O)[C@H](Cc2c[nH]c3ccccc23)NC(=O)[C@H](CCC(=O)O)NC(=O)[C@H](CCC(=O)O)NC(=O)[C@@H]2CSCCC(=O)N3CN(CN(C3)C(=O)CCSC[C@@H](C(=O)N[C@@H](C)C(=O)N[C@@H](Cc3c[nH]cn3)C(=O)N3CCC[C@H]3C(N)=O)NC1=O)C(=O)CCSC[C@H](NC(=O)[C@H](C)N)C(=O)N[C@@H](CCCNC(=N)N)C(=O)N[C@@H](CC(=O)O)C(=O)N[C@@H](CC(C)C)C(=O)N[C@@H](CC(=O)O)C(=O)N1CCC[C@H]1C(=O)N[C@@H](Cc1c[nH]c3ccccc13)C(=O)N[C@@H]([C@@H](C)O)C(=O)N2` [Example 170, A-(SEQ ID NO: 128)-AHP] (H-ACRDLDPWTCEEWWLCAHP-NH2; linker 2-10-16 via TATA; N-terminus and C-terminus assumed) has a Kd of 170 nM.
`CC(C)C[C@@H]1NC(=O)[C@H](Cc2c[nH]c3ccccc23)NC(=O)[C@H](Cc2c[nH]c3ccccc23)NC(=O)[C@H](CO)NC(=O)[C@H](CO)NC(=O)[C@@H]2CSCCC(=O)N3CN(CN(C3)C(=O)CCSC[C@H](NC(=O)[C@@H](NC(=O)[C@H](CC(=O)O)NC(=O)[C@H](CCCNC(=N)N)NC(=O)[C@H](CCC(N)=O)NC(=O)[C@H](Cc3ccc(O)cc3)NC(=O)[C@@H](N)CCC(=O)O)C(C)C)C(=O)N[C@@H](CCCNC(=N)N)C(=O)N[C@@H](CC(=O)O)C(=O)N[C@@H](CC(C)C)C(=O)N[C@@H](CC(=O)O)C(=O)N3CCC[C@H]3C(=O)N[C@@H](Cc3c[nH]c4ccccc34)C(=O)N[C@@H]([C@@H](C)O)C(=O)N2)C(=O)CCSC[C@@H](C(=O)N[C@@H](C)C(N)=O)NC1=O` [Example 173, EYQRDV-(SEQ ID NO: 122)-A] showed a Kd of 77 nM.
Work on `CC(C)C[C@@H]1NC(=O)[C@H](Cc2c[nH]c3ccccc23)NC(=O)[C@H](Cc2c[nH]c3ccccc23)NC(=O)[C@H](CO)NC(=O)[C@H](CO)NC(=O)[C@@H]2CSCCC(=O)N3CN(CN(C3)C(=O)CCSC[C@@H](C(=O)N[C@@H](CO)C(=O)N[C@@H](CCC(=O)O)C(=O)N[C@@H](CO)C(=O)N[C@H](C(=O)N[C@@H](Cc3c[nH]cn3)C(=O)N[C@H](C(=O)N[C@@H](C)C(N)=O)[C@@H](C)O)C(C)C)NC1=O)C(=O)CCSC[C@H](NC(=O)[C@H](C)N)C(=O)N[C@@H](CCCNC(=N)N)C(=O)N[C@@H](CC(=O)O)C(=O)N[C@@H](CC(C)C)C(=O)N[C@@H](CC(=O)O)C(=O)N1CCC[C@H]1C(=O)N[C@@H](Cc1c[nH]c3ccccc13)C(=O)N[C@@H]([C@@H](C)O)C(=O)N2` [Example 175, A-(SEQ ID NO: 122)-SESVHTA] yielded a Kd of 240 nM.
For `CC(C)C[C@@H]1NC(=O)[C@H](Cc2c[nH]c3ccccc23)NC(=O)[C@H](Cc2c[nH]c3ccccc23)NC(=O)[C@H](CO)NC(=O)[C@H](CO)NC(=O)[C@@H]2CSCCC(=O)N3CN(CN(C3)C(=O)CCSC[C@@H](C(=O)N[C@@H](CCCCN)C(=O)N3CCC[C@H]3C(=O)N[C@@H](CC(=O)O)C(=O)N[C@@H](Cc3c[nH]cn3)C(=O)N[C@H](C(=O)N[C@@H](CC(=O)O)C(=O)N[C@@H](C)C(N)=O)C(C)C)NC1=O)C(=O)CCSC[C@H](NC(=O)[C@H](C)N)C(=O)N[C@@H](CCCNC(=N)N)C(=O)N[C@@H](CC(=O)O)C(=O)N[C@@H](CC(C)C)C(=O)N[C@@H](CC(=O)O)C(=O)N1CCC[C@H]1C(=O)N[C@@H](Cc1c[nH]c3ccccc13)C(=O)N[C@@H]([C@@H](C)O)C(=O)N2` [Example 177, A-(SEQ ID NO: 122)-KPDHVDA], the Kd was 580 nM.
For `CC(C)C[C@@H]1NC(=O)[C@H](Cc2c[nH]c3ccccc23)NC(=O)[C@H](Cc2c[nH]c3ccccc23)NC(=O)[C@H]([C@@H](C)O)NC(=O)[C@H](CCC(=O)O)NC(=O)[C@@H]2CSCCC(=O)N3CN(CN(C3)C(=O)CCSC[C@H](N)C(=O)N[C@@H](CCCCN)C(=O)N[C@@H](CCC(=O)O)C(=O)N[C@@H](CC(C)C)C(=O)N[C@@H](CC(=O)O)C(=O)N3CCC[C@H]3C(=O)N[C@@H](Cc3c[nH]c4ccccc34)C(=O)N[C@@H]([C@@H](C)O)C(=O)N2)C(=O)CCSC[C@@H](C(N)=O)NC1=O` [Example 179, (SEQ ID NO: 130)] (H-CKELDPWTCETWWLC-NH2; linker 1-9-15 via TATA), the Kd was 360 nM.
`CC(C)C[C@@H]1NC(=O)[C@H](Cc2c[nH]c3ccccc23)NC(=O)[C@H](Cc2c[nH]c3ccccc23)NC(=O)[C@H]([C@@H](C)O)NC(=O)[C@H](CCC(=O)O)NC(=O)[C@@H]2CSCCC(=O)N3CN(CN(C3)C(=O)CCSC[C@H](N)C(=O)N[C@@H](CCCN)C(=O)N[C@@H](CCC(=O)O)C(=O)N[C@@H](CC(C)C)C(=O)N[C@@H](CC(=O)O)C(=O)N3CCC[C@H]3C(=O)N[C@@H](Cc3c[nH]c4ccccc34)C(=O)N[C@@H]([C@@H](C)O)C(=O)N2)C(=O)CCSC[C@@H](C(N)=O)NC1=O` [Example 180, (SEQ ID NO: 131)] (H-C[Orn]ELDPWTCETWWLC-NH2; linker 1-9-15 via TATA; N-terminus and C-terminus assumed) gave a Kd of 300 nM.
Compound `CC(C)C[C@@H]1NC(=O)[C@H](Cc2c[nH]c3ccccc23)NC(=O)[C@H](Cc2c[nH]c3ccccc23)NC(=O)[C@H]([C@@H](C)O)NC(=O)[C@H](CCC(=O)O)NC(=O)[C@@H]2CSCCC(=O)N3CN(CN(C3)C(=O)CCSC[C@H](N)C(=O)N[C@@H](CCC(N)=O)C(=O)N[C@@H](CCC(=O)O)C(=O)N[C@@H](CC(C)C)C(=O)N[C@@H](CC(=O)O)C(=O)N3CCC[C@H]3C(=O)N[C@@H](Cc3c[nH]c4ccccc34)C(=O)N[C@@H]([C@@H](C)O)C(=O)N2)C(=O)CCSC[C@@H](C(N)=O)NC1=O` [Example 181, (SEQ ID NO: 132)] (H-CQELDPWTCETWWLC-NH2; linker 1-9-15 via TATA; N-terminus and C-terminus assumed) has a Kd of 310 nM.
For `CC(C)C[C@@H]1NC(=O)[C@H](Cc2c[nH]c3ccccc23)NC(=O)[C@H](Cc2c[nH]c3ccccc23)NC(=O)[C@H]([C@@H](C)O)NC(=O)[C@H](CCC(=O)O)NC(=O)[C@@H]2CSCCC(=O)N3CN(CN(C3)C(=O)CCSC[C@H](N)C(=O)N[C@@H]([C@@H](C)O)C(=O)N[C@@H](CCC(=O)O)C(=O)N[C@@H](CC(C)C)C(=O)N[C@@H](CC(=O)O)C(=O)N3CC(F)(F)C[C@H]3C(=O)N[C@@H](Cc3c[nH]c4ccccc34)C(=O)N[C@@H]([C@@H](C)O)C(=O)N2)C(=O)CCSC[C@@H](C(N)=O)NC1=O` [Example 182, (SEQ ID NO: 133)], the Kd was 1300 nM.
